From patent US20250296938A1, “Compounds that Interact with the Ras Superfamily for the Treatment of Cancers, Inflammatory Diseases, Rasopathies, and Fibrotic Disease” (SHY Therapeutics, LLC, priority 2018, published 2025)
Like-named read-outs stand apart in the source and are kept apart here.

What was measured:
Assay in all cases: Ras GTP binding domain inhibition assay (Cy3-GTP/Cy5-GTP competition)
KRas G12C mutant = test system: KRas G12C mutant; set-up: species or system human; details: 20 μM
Method in brief: (§1)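 His-tagged Ras proteins were captured on nickel-coated wells in Buffer-I (25 mM Tris-HCl pH 7.4, 27 mM KCl, 137 mM NaCl, 1 mM MgCl2, 1 mM DTT) or Buffer-II (50 mM Tris-HCl pH 7.0). Compounds (20 μM or serial dilution, 1% DMSO) were incubated 3 h at RT, ±Sos(556-1049) in the final hour. Bound Cy3-/Cy5-GTP (100 nM, 45 min) was read after washing.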

KRas Q61H mutant = test system: KRas Q61H mutant; set-up: species or system human; details: 20 μM
Method in brief: as §1

KRas wild type = test system: KRas wild type; set-up: species or system human; details: 20 μM; for KRas wild type % inh.: without SOS (Table 7A); for KRas wild type: % inh.: without SOS
Method in brief: as §1

KRas G12D mutant = target: T1, KRas G12D mutant (Homo sapiens, UniProt P01116, G12D); details: 20 μM
T1 construct: fused on or other part: His tag, used for capture on nickel-coated plates
Method in brief: as §1

[1] = with SOS (Table 7A), read-out: KRas G12D mutant + SOS: % inh.
[2] = without SOS (Table 7A), read-out: KRas G12D mutant: % inh.
[3] = with SOS, read-out: KRas G-12D mutant + SOS: % inh.
[4] = without SOS, read-out: KRas G12D mutant: % inh.

KRas G12C mutant + SOS: % inh. (KRas G12C mutant; with SOS (Table 7A)) | KRas G12C mutant: % inh. (KRas G12C mutant; without SOS (Table 7A)) | KRas Q61H mutant + SOS: % inh. (KRas Q61H mutant; with SOS (Table 7A)) | KRas Q61H mutant: % inh. (KRas Q61H mutant; without SOS (Table 7A)) | KRas wild type + SOS: % inh. (KRas wild type; with SOS (Table 7A)) | KRas wild type % inh. (KRas wild type) | inhibition at 20 µM (KRas G12D mutant; [1]) | inhibition at 20 µM (KRas G12D mutant; [2]) | KRas G12C mutant + SOS: % inh. (KRas G12C mutant; with SOS) | KRas G12C mutant: % inh. (KRas G12C mutant; without SOS) | KRas Q61H mutant + SOS: % inh. (KRas Q61H mutant; with SOS) | KRas Q61H mutant: % inh. (KRas Q61H mutant; without SOS) | KRas wild type + SOS: % inh. (KRas wild type; with SOS) | KRas wild type: % inh. (KRas wild type) | inhibition at 20 µM (KRas G12D mutant; [3]) | inhibition at 20 µM (KRas G12D mutant; [4]) | SMILES
A (1-25% inhibition) | B (26-50% inhibition) | B (26-50% inhibition) | B (26-50% inhibition) | A (1-25% inhibition) | B (26-50% inhibition) | 26 to 50% | 26 to 50% |  |  |  |  |  |  |  |  | CO[C@H]1CC[C@@H](Nc2nc(-c3nccn3C)nc(C(=O)N3CCc4c(O)cccc4C3)c2C)C1 [drawing 901]
 |  |  |  |  |  |  |  | D (76-100% inhibition) | B (26-50% inhibition) | D (76-100% inhibition) | D (76-100% inhibition) | D (76-100% inhibition) | C (51-75% inhibition) | 51 to 75% | 51 to 75% | COCC1CN(c2nc(-c3nccn3C)nc3sc(-c4cccc(OC)c4F)c(-c4ccc(OC)cc4)c23)C1 [drawing 805]
D (76-100% inhibition) | D (76-100% inhibition) | D (76-100% inhibition) | D (76-100% inhibition) | D (76-100% inhibition) | D (76-100% inhibition) | 76 to 100% | 51 to 75% |  |  |  |  |  |  |  |  | CO[C@H]1C[C@@H](Nc2nc(-c3nccn3C)nc3sc(-c4cnn(C)c4)c(-c4ccccc4)c23)C1 [drawing 892]
D (76-100% inhibition) | C (51-75% inhibition) | D (76-100% inhibition) | D (76-100% inhibition) | D (76-100% inhibition) | D (76-100% inhibition) | 51 to 75% | 51 to 75% |  |  |  |  |  |  |  |  | CO[C@H]1CC[C@@H](Nc2nc(-c3nccn3C)nc3sc(-c4ccn(C(C)C)n4)c(C)c23)C1 [drawing 919]
C (51-75% inhibition) | C (51-75% inhibition) | C (51-75% inhibition) | C (51-75% inhibition) | B (26-50% inhibition) | C (51-75% inhibition) | 26 to 50% | 51 to 75% |  |  |  |  |  |  |  |  | CCOc1cccc(Nc2nc(-c3ccccn3)nc(O)c2OC)c1 [drawing 882]
 |  |  |  |  |  |  |  | B (26-50% inhibition) | C (51-75% inhibition) | B (26-50% inhibition) | A (1-25% inhibition) | A (1-25% inhibition) | C (51-75% inhibition) | 1 to 25% | 51 to 75% | Cc1cnc(-c2nc(O)c3scc(-c4ccccn4)c3n2)n1C [drawing 808]
C (51-75% inhibition) | C (51-75% inhibition) | D (76-100% inhibition) | C (51-75% inhibition) | C (51-75% inhibition) | C (51-75% inhibition) | 51 to 75% | 26 to 50% |  |  |  |  |  |  |  |  | CN(C)CCOCCNc1nc(-c2nccn2C)nc2sc(-c3ccn(C)n3)c(-c3ccccc3)c12 [drawing 907]
 |  |  |  |  |  |  |  | A (1-25% inhibition) | 0 (0% inhibition) | A (1-25% inhibition) | B (26-50% inhibition) | A (1-25% inhibition) | A (1-25% inhibition) | 1 to 25% | 1 to 25% | Oc1nc(-c2cn(-c3ccccc3)cn2)nc2c(-c3ccccn3)csc12 [drawing 847]
 |  |  |  |  |  |  |  | C (51-75% inhibition) | A (1-25% inhibition) | D (76-100% inhibition) | A (1-25% inhibition) | D (76-100% inhibition) | A (1-25% inhibition) | 26 to 50% | 1 to 25% | COCCNc1nc(-c2nccn2C)nc2sc(-c3cc(OC)ccc3Cl)c(-c3ccc(OC)cc3)c12 [drawing 877]
 |  |  |  |  |  |  |  | C (51-75% inhibition) | C (51-75% inhibition) | C (51-75% inhibition) | B (26-50% inhibition) | C (51-75% inhibition) | B (26-50% inhibition) | 51 to 75% | 51 to 75% | COC1CCN(c2nc(-c3nccn3C)nc3sc(-c4ccnn4C)c(-c4ccccc4)c23)C1.Cl (centres unmarked)
 |  |  |  |  |  |  |  | B (26-50% inhibition) | B (26-50% inhibition) | B (26-50% inhibition) | B (26-50% inhibition) | A (1-25% inhibition) | C (51-75% inhibition) | 1 to 25% | 26 to 50% | Oc1nc(-c2cn3ccccc3n2)nc2c(-c3ccccn3)csc12 [drawing 816]
 |  |  |  |  |  |  |  | A (1-25% inhibition) | 0 (0% inhibition) | A (1-25% inhibition) | A (1-25% inhibition) | 0 (0% inhibition) | A (1-25% inhibition) | 1 to 25% | 0% | COCCCNc1nc(-c2nccn2C)nc2sc(-c3ccn(C)n3)c(-c3ccc(OC)cc3)c12 [drawing 870]
 |  |  |  |  |  |  |  | D (76-100% inhibition) | D (76-100% inhibition) | C (51-75% inhibition) | B (26-50% inhibition) | C (51-75% inhibition) | C (51-75% inhibition) | 51 to 75% | 51 to 75% | COC1CCN(c2nc(-c3nccn3C)nc3sc(-c4cccnc4)c(-c4ccccc4)c23)C1.Cl (centres unmarked)
D (76-100% inhibition) | C (51-75% inhibition) | D (76-100% inhibition) | D (76-100% inhibition) | D (76-100% inhibition) | D (76-100% inhibition) | 76 to 100% | 76 to 100% |  |  |  |  |  |  |  |  | CO[C@H]1CC[C@@H](Nc2nc(-c3nccn3C)nc3sc(C(=O)NC(C)C)c(-c4ccccc4)c23)C1 [drawing 924]
D (76-100% inhibition) | C (51-75% inhibition) | D (76-100% inhibition) | C (51-75% inhibition) | D (76-100% inhibition) | C (51-75% inhibition) | 51 to 75% | 26 to 50% |  |  |  |  |  |  |  |  | CO[C@H]1C[C@H](Nc2nc(-c3nccn3C)nc3sc(-c4ccn(C)n4)c(-c4ccccc4)c23)C1 [drawing 906]
 |  |  |  |  |  |  |  | A (1-25% inhibition) | B (26-50% inhibition) | A (1-25% inhibition) | B (26-50% inhibition) | A (1-25% inhibition) | A (1-25% inhibition) | 0% | 1 to 25% | COc1ccc(Cn2cnc(-c3nc(O)c4scc(-c5ccccn5)c4n3)c2)cc1 [drawing 839]
 |  |  |  |  |  |  |  | C (51-75% inhibition) | C (51-75% inhibition) | C (51-75% inhibition) | C (51-75% inhibition) | C (51-75% inhibition) | C (51-75% inhibition) | 51 to 75% | 76 to 100% | Oc1nc(-c2ncc3ccccn23)nc2c(-c3ccccn3)csc12 [drawing 834]
D (76-100% inhibition) | D (76-100% inhibition) | D (76-100% inhibition) | D (76-100% inhibition) | C (51-75% inhibition) | D (76-100% inhibition) | 51 to 75% | 51 to 75% |  |  |  |  |  |  |  |  | COCCNC(=O)c1sc2nc(-c3nccn3C)nc(N[C@H]3C[C@@H](OC)C3)c2c1-c1ccccc1 [drawing 921]
D (76-100% inhibition) | C (51-75% inhibition) | D (76-100% inhibition) | C (51-75% inhibition) | D (76-100% inhibition) | C (51-75% inhibition) | 51 to 75% | 26 to 50% |  |  |  |  |  |  |  |  | CO[C@H]1CC[C@@H](Nc2nc(-c3nccn3C)nc3sc(-c4ccn(C)n4)c(C)c23)C1 [drawing 915]
